Source: ChEMBL document CHEMBL3832549, “DailyMed|setid=7633c9b3-dfb5-446f-a260-e44b6e48afa2 | BUDESONIDE- budesonide capsule|Carilion Materials Management”

Tests used:
[1] = (§1) Evaluation of pharmacokinetic parameters for Budesonide following single oral administration of Budesonide capsules (enteric coated) to healthy subjects and/or patients with Crohn's disease.; assay type: ADME, organism-based; set-up: dose 9 mg, route oral; settings: human, in vivo, dosed compound id 9, dosed compound name BUDESONIDE, regimen Single dose, tissue Plasma
Homo sapiens = assay: as §1; assay type: ADME, organism-based; set-up: dose 9 mg, route oral; settings: in vivo, po, dosed compound id 9, dosed compound name BUDESONIDE, gender male and female, regimen Single dose, tissue Plasma
[2] = po, 9 mg, gender male and female

Tmax ([1]; 9 mg, route oral): 0.5 to 10 h | AUC [1, 2]: 0.03 µM·h | Cmax [1, 2]: 5 nM | fraction unbound ([1]; po, at 9 mg, gender male and female, route oral, read-out: Protein binding): 0.1 to 0.15 | Vd (Homo sapiens): 2.2 to 3.9 L/kg
SMILES: CCCC1O[C@@H]2C[C@H]3[C@@H]4CCC5=CC(=O)C=C[C@]5(C)[C@H]4[C@@H](O)C[C@]3(C)[C@]2(C(=O)CO)O1 (stereo not given in full) [BUDESONIDE]
